From US20220040109A1, “KIDNEY-TARGETING DRUG DELIVERY CARRIER” (KYOTO PHARMACEUTICAL UNIVERSITY, priority 2017, published 2022)

Assay: Toxicity in mouse (plasma creatinine, BUN, kidney histology)
Format: in vivo, ddY mice
Details: compound 1a 1 mg/kg intravenous once per day for 5 days
Description: Six days after the first intravenous injection, under isoflurane anesthesia, the blood was collected from the vena cava to sacrifice the mice. Plasma creatinine and urea nitrogen (BUN) levels were respectively measured using a creatinine measurement kit (LabAssay, Wako) and a BUN measurement kit (DIUR-100, BioAssay System). Thereafter, kidneys were excised, fixed with 4% paraformaldehyde, and embedded in paraffin blocks. Then, 5-μm-thick sections were prepared. The kidney sections were stained with hematoxylin and eosin, and renal injury was evaluated using a light microscopy (Biozero, KEYENCE). In addition, when HgCl2 was administered as a positive control, plasma creatinine, BUN level and kidney sections were also evaluated by the above-mentioned methods.

Compound: [Cl][Hg][Cl] [HgCl2]
- histological sections of renal tissues (hematoxylin and eosin) (HgCl2 positive control, FIG. 10C): infiltration and necrosis of inflammatory cells and damaged cells were observed
- plasma concentration of creatinine (HgCl2 subcutaneous positive control, FIG. 10A): significantly increased
- plasma concentration of BUN (HgCl2 subcutaneous positive control, FIG. 10B): significantly increased
